Results: patent US20170073305A1, “FATTY ACID AMIDES, COMPOSITIONS AND METHODS OF USE” (Catabasis Pharmaceuticals, Inc., priority 2011, published 2017)

Experiments:
NF-κB = NF-κB luciferase reporter assay in RAW 264.7 macrophages; type: cell-based; conditions: Mus musculus, RAW264.7; RAW 264.7 3×NF-κB luciferase reporter cells, 2 hour pretreatment, 200 ng/ml LPS for 3 hours; read-out: NF-kB inhibitory activity IC50
Description: RAW 264.7 cells stably expressing a 3×NF-κB response element-drive luciferase reporter were seeded into 96 well plates in sera-free medium (Optimem) 18 hours prior to compound application. Compounds of the invention were prepared by first making 100 mM stock solutions in EtOH. Stock solutions were then diluted 1:100 in low LPS FBS (Gemini BenchMark 100-106), mixed vigorously and allowed to incubate at room temperature for 30 minutes. 1:2 serial dilutions were then made in FBS supplemented with 1% EtOH, mixed vigorously, and again allowed to incubate at room temperature for 30 minutes before adding to RAW 264.7 reporter cells (final concentrations: 10% FBS, 100 uM highest compound dilution, 0.1% EtOH) for a 2 hour pretreatment prior to stimulation with LPS. Cells were then stimulated with 200 ng/ml LPS or vehicle control for 3 hours in the presence of the compounds of the invention. A set of six vehicles was left unstimulated with LPS in order to measure the assay floor. AlamarBlue viability dye (Invitrogen) was added to cells simultaneously with the delivery of LPS (final AlamarBlue concentration of 10%). After the 3 h incubation period with LPS, cell viability was measured by reading fluorescence (excitation 550 nm, emission 595 nm) with a Perkin Elmer Victor V plate reader. Then cell media was aspirated from each well. Luciferase signal was then developed by addition of the Britelite Plus reagent (Perkin Elmer). Luciferase activity was measured with the Perkin Elmer Victor V plate reader. NF-κB activity was expressed as a percent of the vehicle control wells (stimulated with LPS). Compounds were tested at 6 dose point titrations in triplicate to determine IC50 values. Table 1 summarizes the IC50 values for a number of fatty acid amides in this NF-κB luciferase reporter assay.

IL-1β = IL-1β gene expression in LPS-stimulated RAW264.7 macrophages; type: cell-based; conditions: RAW264.7, 2 hours pre-incubation, 100 ng/ml LPS 3 hours, relative to vehicle only control, FIG. 1
Description: RAW264.7 macrophages were seeded at a density of 100,000 cells/well in a 96-well plate in DMEM supplemented with 10% FBS and Penn/strep. 16 hours later, medium was aspirated and replaced with 90 μL/well of serum-free DMEM. Fatty acid amides were brought up in 100% EtOH to a concentration of 100 mM and then diluted 1:100 in 100% FBS for a stock solution consisting of 1 mM compound and 1% EtOH. These stock solutions were then diluted 1:10 in FBS supplemented with 1% EtOH to generate a 100 μM of the fatty acid amide. 10 μL was then added to the RAW246.7 cells to generate final concentrations 10 μM of the fatty acid amide or 10 μM each DHA and MMF, along with vehicle only control. The compounds were allowed to pre-incubate for 2 hours before stimulation of 100 ng/ml LPS (10 μL of 1 μg/ml LPS was added to each well). Following 3 hours of LPS stimulation, cells were washed once in 1×PBS, aspirated dry, and flash frozen in liquid nitrogen. […] IL-1β transcript levels were then measured using Taqman primer/probe assay sets (Applied Biosystems), normalized to GAPDH using the deltaCt method, and the data expressed relative to vehicle only control. FIG. 1 summarizes the IL-1β gene expression data on compound I-57 (cellular toxicity was assessed using alamar blue as indicator, abbreviated in the figure as AB). […]

Hmox1 = Hmox1 target gene expression in LPS-stimulated RAW264.7 macrophages; type: cell-based; conditions: RAW264.7, 1.6-50 μM, 2 hours pre-incubation, 100 ng/ml LPS 3 hours, relative to vehicle only control, FIG. 2
Description: RAW264.7 macrophages were seeded at a density of 100,000 cells/well in a 96-well plate in DMEM supplemented with 10% FBS and Penn/strep. 16 hours later, medium was aspirated and replaced with 90 uL/well of serum-free DMEM. Fatty acid amides were brought up in 100% EtOH to a concentration of 100 mM and then diluted 1:100 in 100% FBS for a 20× stock solution consisting of 1 mM compound and 1% EtOH. The fatty acid amide 20× stock solutions were diluted 1:2 in FBS supplemented with 1% EtOH for a 500 uM 10× stock solution. The 10× stock solutions were then serially diluted 1:2 in FBS supplemented with 1% EtOH and 10 μL of each dilution was added to the RAW246.7 cells to generate final concentrations of 50, 25, 12.5, 6.25, 3.12 and 1.6 μM. The compounds were allowed to pre-incubate for 2 hours before stimulation of 100 ng/ml LPS (10 μL of 1 μg/ml LPS is added to each well). Following 3 hours of LPS stimulation, cells were washed once in 1×PBS, aspirated dry, and flash frozen in liquid nitrogen. […] Transcript levels were then measured using ABI Taqman primer/probe assay kits, normalized to GAPDH using the deltaCt method, and the data expressed relative to vehicle only control. FIG. 2 summarizes the Hmox data on compound I-57 (cellular toxicity was assessed using alamar blue as indicator, abbreviated in the figure as AB). […]

[1] = test system: Cystinotic fibroblasts (cell line GM00008, Coriell Cell Repository); assay: cystinotic fibroblast assay (cystine depletion, LC-MS/MS); type: cell-based; conditions: 50 μM, cells incubated 24 hours, cystine by LC-MS/MS, percentage of control (POC)
Description: Nephropathic cystinosis is an orphan genetic lysosomal storage disorder characterized by a massive accumulation of crystalline cystine within cells. Affected individuals develop a proximal renal tubulopathy and progress, if untreated, to end-stage renal failure. Omran et al (Bioorg. Med. Chem. 2011, p, 3492) described a convenient in vitro system to quickly evaluate compounds that could deplete levels of cystine in cultured fibroblasts. Cystinotic fibroblasts (cell line GM00008, Coriell Cell Repository) were seeded in a 6-well plate and grown in DMEM/15% FBS until confluent. […] Protein quantification was accomplished by dissolving precipitated protein in 0.25 M NaOH and 1 M Tris (pH 7.5), and spectrophotometric measurement using the Bradford method. Compound I-9 was evaluated in this cystinotic fibroblast assay. The level of cystine in this cystinotic cell line was quantitated by LC-MS/MS. […] The level of cystine was expressed as the percentage of control (POC). […] The cystine level was determined as follows: To the 50 μL of supernatant, acetonitrile (400 μL) containing 200 ng/ml Internal standard (deuterated cystine) was added and mixture was vortexed for 1 min followed by centrifugation for 10 minutes. […] The concentration of Cystine was measured by LC-MS/MS. […]

mice lacking cystinosin = conditions: 200 or 400 mg/kg orally for 7, 30 or 60 days, greatest effect in liver and kidney after 60 days; cited from earlier work

SMILES | IC50 (NF-κB) | other results
CC/C=C\C/C=C\C/C=C\C/C=C\C/C=C\C/C=C\CCC(=O)O [DHA, all-cis-4,7,10,13,16,19-docosahexaenoic acid, reference compound] | > 200 µM | 
CC/C=C\C/C=C\C/C=C\C/C=C\C/C=C\CCCC(=O)NCCOCCOCCOC [I-57, (5Z,8Z,11Z,14Z,17Z)-N-(2-(2-(2-methoxyethoxy)ethoxy)ethyl)icosa-5,8,11,14,17-pentaenamide] | < 50 µM | IL-1β gene expression (IL-1β): decrease; Hmox gene expression (Hmox1): upregulation
CC/C=C\C/C=C\C/C=C\C/C=C\C/C=C\CCCC(=O)O [EPA, all-cis-5,8,11,14,17-eicosapentaenoic acid, reference compound] | > 200 µM | 
CC/C=C\C/C=C\C/C=C\C/C=C\C/C=C\CCCC(=O)NCCSSCCNC(C)=O [I-9, (5Z,8Z,11Z,14Z,17Z)-N-(2-((2-acetamidoethyl)disulfanyl)ethyl)icosa-5,8,11,14,17-pentaenamide] |  | reduction in the cystine level [1]: 68%
NCCS [cysteamine, reference compound] |  | reduction in the cystine level [1]: 45%; cystine levels of tissues (mice lacking cystinosin): reduce cystine levels of all tissues tested
CC/C=C\C/C=C\C/C=C\C/C=C\C/C=C\C/C=C\CCC(=O)N[C@@H](C)C(=O)N[C@@H]1[C@@H](O)[C@H](O)[C@@H](CO)O[C@H]1O [I-47, (4Z,7Z,10Z,13Z,16Z,19Z)-N-((S)-1-oxo-1-(((2R,3R,4R,5S,6R)-2,4,5-trihydroxy-6-(hydroxymethyl)tetrahydro-2H-pyran-3-yl)amino)propan-2-yl)docosa-4,7,10,13,16,19-hexaenamide] | > 200 µM | 

Now from value to molecule, other results behind:

IC50 (NF-κB) | SMILES | other results
< 50 µM | CC/C=C\C/C=C\C/C=C\C/C=C\C/C=C\C/C=C\CCC(=O)NCCOCCOCCOC [I-52, (4Z,7Z,10Z,13Z,16Z,19Z)-N-(2-(2-(2-methoxyethoxy)ethoxy)ethyl)docosa-4,7,10,13,16,19-hexaenamide] | 
< 50 µM | CC/C=C\C/C=C\C/C=C\C/C=C\C/C=C\C/C=C\CCC(=O)N[C@@H](CC(C)C)C(=O)N[C@@H]1[C@@H](O)[C@H](O)[C@@H](CO)O[C@H]1O [I-49, (4Z,7Z,10Z,13Z,16Z,19Z)-N-((S)-4-methyl-1-oxo-1-(((2R,3R,4R,5S,6R)-2,4,5-trihydroxy-6-(hydroxymethyl)tetrahydro-2H-pyran-3-yl)amino)pentan-2-yl)docosa-4,7,10,13,16,19-hexaenamide] | 
< 50 µM | CC/C=C\C/C=C\C/C=C\C/C=C\C/C=C\C/C=C\CCC(=O)N[C@H](C(=O)N[C@@H]1[C@@H](O)[C@H](O)[C@@H](CO)O[C@H]1O)C(C)C [I-48, (4Z,7Z,10Z,13Z,16Z,19Z)-N-((S)-3-methyl-1-oxo-1-(((2R,3R,4R,5S,6R)-2,4,5-trihydroxy-6-(hydroxymethyl)tetrahydro-2H-pyran-3-yl)amino)butan-2-yl)docosa-4,7,10,13,16,19-hexaenamide] | 
< 200 µM | CC/C=C\C/C=C\C/C=C\C/C=C\C/C=C\C/C=C\CCC(=O)Nc1nc2c(s1)C[C@H](NCCC)CC2 [I-21, (4Z,7Z,10Z,13Z,16Z,19Z)-N-((R)-6-(propylamino)-4,5,6,7-tetrahydrobenzo[d]thiazol-2-yl)docosa-4,7,10,13,16,19-hexaenamide] | 
